Measurements: patent US11506670B2, “Method of genome-wide direct identification of electrophile-sensing targets” (Cornell University, priority 2018, dated 2022)

Experiments:
γ-H2AX = γ-H2AX immunofluorescence in HEK293T cells; assay type: cell-based, human
Protocol: Cells were grown to 70% confluence in 35 mm glass-bottomed dishes and transfected with HaloTagged plasmids. T-REX™ delivery was performed as mentioned above. […] The fixative was aspirated and the cells washed three times with 1×DPBS with 5-min incubation at room temperature. Blocking and permeabilization was performed in one-step by incubation at 37° C. for 1 h in 1×DPBS containing 3% BSA and 0.2% Triton X-100. Cells were subsequently incubated with primary antibody (1:300, Table 4) in incubation buffer (1% BSA, 0.02% Triton X-100 in 1×DPBS) for 2 h at room temperature. Cells were rinsed 3 times with 1×DPBS with 5 min incubation for each wash and subsequently incubated in dark for 1 h at room temperature with corresponding second antibody (1:1000, Table 4) in incubation buffer. Cells were rinsed 3 times with 1×DPBS with 5 min incubation for each rinse. DAPI (Sigma) was freshly prepared in 1×DPBS from 2 mg/mL wt./v stock solution in water and added to the wells at the final concentration of 0.2 μg/mL. The samples were incubated in dark for 1 min and washed once with 1×DPBS and stored at 4° C. in dark till images were taken using a Zeiss LSM 710 meta confocal fluorescence microscope. Image analysis was performed using Image-J (NIH).

[1] = tested on: ten HaloTag proteins in HEK-293 cells; experiment: T-REX gel-based screen of Halo ORF clones for HNE-sensitive targets; assay type: cell-based
Protocol: Individual wells in a 48-well plate contained live HEK-293 cells ectopically expressing a unique HaloTagged gene of interest. The cells were subjected to T-REX™ delivery-HNE(alkyne) targeting on demand. Post cell lysis, all samples were treated with TEV protease and subsequently subjected to Click coupling reaction with Cy5 azide. Probing with Halo antibody allowed evaluation of expression level (and/or solubility under the lysis conditions used). […] For example, RRM1, PRKCD, p53R2, and Keap1 (positive control) had roughly similar expression levels. Only RRM1 and Keap1 were HNE-sensitive although all four targets have been previously identified to be potentially redox/HNE-sensitive (Holmstrom et al., “Cellular Mechanisms and Physiological Consequences of Redox-Dependent Signalling,” Nat. Rev. Mol. Cell. Biol. 15:411-21 (2014); Jacobs et al., “Systems Analysis of Protein Modification and Cellular Responses Induced by Electrophile Stress,” Acc. Chem. Res. 43:673-83 (2010); Delmastro-Greenwood et al., “Redox-Dependent Anti-Inflammatory Signaling Actions of Unsaturated Fatty Acids,” Annu. Rev. Physiol. 76:79-105 (2014); Crunkhorn S., “Deal Watch: Abbott Boosts Investment in NRF2 Activators for Reducing Oxidative Stress,” Nat. Rev. Drug Discov. […]

CCCCCC(O)/C=C/C=O (stereo not shown) [HNE, 4-hydroxynonenal]
γ-H2AX upregulation in Ube2V2-C69S-expressing cells (γ-H2AX; T-REX, over 18-h time course): no significant γ-H2AX upregulation
time post light exposure up to which increased γ-H2AX could be measured (γ-H2AX; basal after 24 h): up to 18 h
increase in cellular γ-H2AX following Ube2V2(C69)-targeted-HNEylation (γ-H2AX; wt-Halo-Ube2V2, T-REX): approximately two-fold
proteins modified by HNE in the screen besides positive control Keap1 [1]: RRM1 and HSPB7
